Assay results published in US20120004182A1, “PHARMACEUTICAL COMPOSITIONS AND METHODS FOR INDUCTION AND ENHANCEMENT OF APOPTOSIS IN TUMOR CELLS” (priority 2010, published 2012).

Test system: human breast tumors
Assay: In vivo studies in nude mice bearing s.c. tumors
Conditions: intraperitoneal, every 2 days, 10 days of treatment, 25 nmol antagonist, 1 μmol 4OH-Tamoxifen per mouse
Description: Female athymic (nude) mice (CD1 nu/nu), 6 to 8 weeks old on arrival, were obtained from Charles River (Sulzfeld, Germany). The mice were housed in sterile cages in a temperature-controlled room with 12-hour light/12-hour dark schedule and were fed autoclaved chow and water ad libitum. All experiments were done according to the German ethical guidelines and the German laws for protection of animals.
Tumors were initiated by subcutaneous injection of 1×10^7 cancer cells into the right flank. After 2 weeks all animals had developed solid tumors of about 200 mm^3 and treatment was initiated. The in vivo experiments were done as follows: 25 nmol of GnRH-II antagonist of Seq. ID. No. 23 without or with 1 μmol of 40H-Tamoxifen per mouse (5 mice per group and control group) were injected intraperitoneally. Treatment was repeated every 2 days. Tumor volumes were measured. The mice were killed after 10 days of treatment. […]
The proliferation and induction of apoptosis were analyzed after treatment without or with a GnRH-II antagonist without or with co-treatment with 4OH-Tamoxifen. Nude mice bearing human breast tumors s.c. were treated without or with a GnRH-II antagonist alone or in combination with 4OH-Tamoxifen and the tumor volumes were measured.

Compound	tumor volume
CC/C(=C(\c1ccccc1)c1ccc(OCCN(C)C)cc1)c1ccccc1 [Tamoxifen]	increases
Ac-D-2Nal-D-4 Cpa-D-3 Pal-Ser-His-D-3 Pal-Trp-Leu-Pro-D-Ala-NH2 [GnRH II antagonist]	increases
